Measurements taken from paper PMC2212407 (The Journal of Experimental Medicine, 1998).
Like-named read-outs stand apart in the source and are kept apart here.

What was measured:
Type in all cases: cell-based, human
[1] = tested on: fresh PBMCs from patient 744; experiment: Proliferation assay of fresh PBMCs from patient 744
[2] = tested on: fresh PBMCs from asymptomatic HIV-1+ patients
[3] = tested on: T cell line 024; experiment: Proliferation of CD4+ T cell line 024; conditions: T cell line 024 initiated on day 71, autologous APCs
[4] = tested on: fresh PBMCs from patient 024

Row | Substance | Proliferation of fresh PBMCs from patient 744, result in words [1] | Mean proliferation (SI) ([2]; Total, 43 patients) | Mean proliferation (SI) ([2]; patients responding to PHA and tetanus toxoid only (n = 12)) | Mean proliferation (SI) ([2]; patients responding to PHA, tetanus toxoid, and HIV antigens (n = 12)) | Stimulation of T cell line 024, result in words [3] | Proliferative response (SI) [4]
1 | Tetanus toxoid: the recall antigen tetanus toxoid | showed a response | 21 ± 65 | 45 ± 117 | 31 ± 32 |  | 
2 | LRPGGKKQYRLKHIV [p17-3/2] |  |  |  |  | failed to stimulate | 
3 | LRPRGKKRYKLKHIV [p17-3/1] |  |  |  |  | failed to stimulate | 1
